{"source": "paper PMC7564829", "about": "“Potent Broad-Spectrum Antibacterial Activity of Amphiphilic Peptides against Multidrug-Resistant Bacteria” (Microorganisms, 2020)", "key": {"[1]": {"molecular_target": "papain (Carica papaya, UniProt P00784)", "sequence (P00784 134-345)": "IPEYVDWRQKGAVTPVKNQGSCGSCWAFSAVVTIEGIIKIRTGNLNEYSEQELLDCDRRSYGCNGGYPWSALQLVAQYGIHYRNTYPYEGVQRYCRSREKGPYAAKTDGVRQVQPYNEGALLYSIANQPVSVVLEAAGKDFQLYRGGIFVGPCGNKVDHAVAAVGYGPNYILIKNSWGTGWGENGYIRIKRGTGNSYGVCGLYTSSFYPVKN", "experiment": "Proteolytic stability (residual antibacterial activity by MIC)", "assay_type": "in vitro ADME", "conditions": "papain 10 mg/mL, 1 h preincubation; residual MIC against E. coli 1F28", "from_the_text": "(§1) Thermal, pH and proteolytic stability."}, "[2]": {"experiment": "Hydrophobicity by RP-HPLC (percent acetonitrile at elution)", "assay_type": "physicochemical", "conditions": "acetonitrile in water, 0.1% (v/v) TFA, higher percent = higher hydrophobicity", "description": "All peptides used in this study were synthesized by GL Biochem (Shanghai, China) using a solid phase peptide synthesis (SPPS) method, and their accurate molecular weights were determined by matrix-assisted laser desorption/ionization time-of-flight mass spectrometry (MALDI-TOF MS). The peptide purity (>95%) and retention time were determined by reversed-phase high-performance liquid chromatography (HPLC).\nA collection of tryptophan-rich linear peptides on the basis of MP196 (RWRWRW-NH2) was designed by increasing peptide length or positive charge or hydrophobicity, replacing amino acids and/or N-terminal acetylation (Table 1). These peptides were synthesized via solid-phase peptide synthesis (SPPS), purified by reverse-phase high-performance liquid chromatography (RP-HPLC) (Figure S1) and validated by matrix-assisted laser desorption/ionization time-of-flight mass spectrometry (MALDI-TOF MS) (Figure S2). […] All engineered peptides belong to cationic AMPs, with 3 or 6 net charges. The percentage of acetonitrile at RP-HPLC elution was regarded as a relative measure of peptides’ hydrophobicity. […] The hydrophobicity order was listed as follows: WRK-12 > WL-9 > WR-6 > WV-9 > KW-6 > WKK-12 > WR-12 > MP196 > WK-6."}, "[3]": {"system": "pepsin", "conditions": "pepsin 10 mg/mL, 1 h preincubation; residual MIC against E. coli 1F28", "description": "Thermal, pH and proteolytic stability. WRK-12 was preincubated at different temperatures (from 25 to 121 °C), pH (from 2 to 12) or proteases (pepsin, trypsin and papain, final concentration 10 mg/mL) for 1 h. Samples after pH treatment were readjusted to pH = 7.2 to determine the residual antibacterial activity by MIC tests. Samples after proteases treatment were heated at 80 °C for 30 min, and centrifuged at 13,000× g for 30 min to precipitate proteases, and the residual antibacterial activity of supernatants was tested by MIC analysis."}, "[4]": {"system": "E. coli 1F28 biofilm", "experiment": "Prevention of biofilm formation (crystal violet)", "assay_type": "cell-based", "conditions": "24 h", "description": "The prevention of biofilm formation was assessed as described previously. Briefly, bacteria (1 × 10^5 CFUs per mL) were exposed to WRK-12 solutions (with final concentrations ranging from 0.25 to 32 μg/mL). As an untreated control, bacteria were exposed to MHB without drugs. After 24 h incubation at 37 °C in a humidified atmosphere, planktonic bacteria were removed by phosphate buffer solution (PBS). Biofilms were fixed with methanol for 15 min, then sucked out the fixative and air dry naturally. Then, biofilms were stained with 0.1% crystal violet for 15 min, washed and dried naturally. Finally, 33% acetic acid was used to dissolve crystal violet. The optical density at 570 nm was determined as a measure of biofilm mass."}, "[5]": {"system": "E. coli 1F28", "experiment": "ROS measurements (DCFH-DA)", "assay_type": "cell-based", "conditions": "0 to 128 μg/mL, 60 min", "description": "2′,7′-Dichlorodihydrofluorescein diacetate (DCFH-DA, 10 μM) was incubated with E. coli 1F28 cells for 30 min. After washing with 0.01 M PBS, the probed cells were mixed with WRK-12 (0 to 128 μg/mL) or colistin (128 μg/mL) for 60 min. The ROS levels were assessed by monitoring the fluorescence intensity (λexcitation = 488 nm, λemission = 525 nm) using a Microplate reader (Tecan, Männedorf, Switzerland)."}, "[6]": {"system": "E. coli 1F28", "experiment": "Thermal and pH stability (residual antibacterial activity by MIC)", "assay_type": "physicochemical", "conditions": "residual MIC against E. coli 1F28", "from_the_text": "as §1"}, "[7]": {"system": "E. coli 1F16", "experiment": "MIC, tigecycline-resistant clinical isolate", "assay_type": "cell-based", "conditions": "E. coli 1F16, feces, tigecycline-resistant clinical isolate; broth micro-dilution", "description": "(§2) Experiments were performed with two biological replicates."}, "[8]": {"system": "Shigella 1F25", "experiment": "MIC, tigecycline-resistant clinical isolate", "assay_type": "cell-based", "conditions": "Shigella 1F25, feces, broth micro-dilution", "description": "as §2"}, "[9]": {"system": "E. coli 1C1", "experiment": "MIC, tigecycline-resistant clinical isolate", "assay_type": "cell-based", "conditions": "E. coli 1C1, dust, tigecycline-resistant clinical isolate; broth micro-dilution", "description": "as §2"}, "[10]": {"system": "E. coli 2A19", "experiment": "MIC, tigecycline-resistant clinical isolate", "assay_type": "cell-based", "conditions": "E. coli 2A19, tigecycline-resistant clinical isolate; broth micro-dilution", "description": "as §2"}, "[11]": {"system": "E. coli B3-1 (tet(X4))", "experiment": "MIC/MBC, broth micro-dilution", "assay_type": "cell-based", "conditions": "E. coli B3-1 (tet(X4))", "description": "as §2"}, "[12]": {"system": "E. faecalis A4 (VRE)", "experiment": "MIC/MBC, broth micro-dilution", "assay_type": "cell-based", "conditions": "E. faecalis A4 (VRE)", "description": "as §2"}, "[13]": {"system": "E. coli 1F28 (tet(X4))", "experiment": "MIC/MBC, broth micro-dilution", "assay_type": "cell-based", "conditions": "E. coli 1F28 (tet(X4))", "description": "as §2"}, "[14]": {"system": "MDR E. coli B2 (mcr-1 + blaNDM-5)", "experiment": "microbe, parasite or virus in culture", "assay_type": "cell-based", "description": "as §2"}, "[15]": {"system": "E. coli ATCC 25922", "experiment": "microbe, parasite or virus in culture", "assay_type": "cell-based", "description": "as §2"}, "[16]": {"system": "S. aureus 215 (cfr + LZD^R)", "experiment": "microbe, parasite or virus in culture", "assay_type": "cell-based", "conditions": "S. aureus 215 (cfr + LZD^R)", "description": "as §2"}, "[17]": {"system": "S. aureus ATCC 29213", "experiment": "microbe, parasite or virus in culture", "assay_type": "cell-based", "description": "as §2"}, "[18]": {"system": "S. enteritidis ATCC 13076", "experiment": "microbe, parasite or virus in culture", "assay_type": "cell-based", "description": "as §2"}, "[19]": {"system": "E. coli 1F28", "assay_type": "cell-based", "conditions": "E. coli 1F28 and 1A34; 10 mM in MHB"}, "[20]": {"conditions": "broth micro-dilution CLSI 2018, MHB, 18 h, 37 °C"}, "[21]": {"conditions": "lowest concentration killing 99.9%, plated on MHA"}}}
{"substance": "Ac-WRLRWKTRWRLK-NH2 [WRK-12]", "values": [{"measurement": "proteolytic stability", "setting": "[1]", "result": "sensitive"}, {"measurement": "H (hydrophobicity, percent of acetonitrile at HPLC elution)", "setting": "[2]", "result": 36.513, "unit": "percent acetonitrile"}, {"measurement": "proteolytic stability", "setting": "[3]", "result": "resistant"}, {"measurement": "inhibition of biofilm formation", "setting": "[4]; 0.5 μg/mL, 37 °C, crystal violet OD570", "result": "significant inhibition effect"}, {"measurement": "biofilm mass", "setting": "[4]; 2 μg/mL or higher, crystal violet staining", "result": "drastically reduced"}, {"measurement": "ROS production, DCFH-DA fluorescence", "setting": "[5]", "result": "triggered the production of ROS in a concentration-dependent manner"}, {"measurement": "activity reduction after thermal treatment", "setting": "[6]; 121 °C, 1 h", "result": 50, "unit": "%"}, {"measurement": "activity reduction after pH treatment", "setting": "[6]; alkaline environment pH = 12, 1 h, readjusted to pH 7.2", "result": 50, "unit": "%"}, {"measurement": "remaining antibacterial activity after pH treatment", "setting": "[6]; pH 2 to 10 for 1 h, readjusted to pH 7.2", "result": "completely retained its activity"}, {"measurement": "remaining antibacterial activity after thermal treatment", "setting": "[6]; treatment under 100 °C for 1 h", "result": "completely retained its activity"}, {"measurement": "MIC", "setting": "[7]", "result": 4, "unit": "mg/L"}, {"measurement": "MIC", "setting": "[8]", "result": 8, "unit": "mg/L"}, {"measurement": "MIC", "setting": "[9]", "result": 4, "unit": "mg/L"}, {"measurement": "MIC", "setting": "[10]", "result": 16, "unit": "mg/L"}, {"measurement": "MIC", "setting": "[11]; [20]", "result": 2, "unit": "mg/L"}, {"measurement": "MBC", "setting": "[11]; [21]", "result": 2, "unit": "mg/L"}, {"measurement": "MIC", "setting": "[12]; [20]", "result": 4, "unit": "mg/L"}, {"measurement": "MBC", "setting": "[12]; [21]", "result": 8, "unit": "mg/L"}, {"measurement": "MIC", "setting": "[13]; [20]", "result": 2, "unit": "mg/L"}, {"measurement": "MBC", "setting": "[13]; [21]", "result": 8, "unit": "mg/L"}, {"measurement": "MBC", "setting": "[14]; MDR B2 (mcr-1 + blaNDM-5, 4 h)", "result": 4, "unit": "mg/L"}, {"measurement": "MIC decrease relative to WL-9", "setting": "[14]; MDR E. coli B2, insertion of three positive amino acids in WL-9", "result": 4, "unit": "fold"}, {"measurement": "MBC", "setting": "[15]; ATCC 25922, 4 h", "result": 8, "unit": "mg/L"}, {"measurement": "MIC", "setting": "[15]; ATCC 25922, 18 h", "result": 4, "unit": "mg/L"}, {"measurement": "MIC", "setting": "[16]; [20]", "result": 2, "unit": "mg/L"}, {"measurement": "MBC", "setting": "[16]; [21]", "result": 2, "unit": "mg/L"}, {"measurement": "MBC", "setting": "[17]; ATCC 29213, 4 h", "result": 4, "unit": "mg/L"}, {"measurement": "MIC", "setting": "[17]; ATCC 29213, 18 h", "result": 4, "unit": "mg/L"}, {"measurement": "MBC", "setting": "[18]; ATCC 13076, 4 h", "result": 4, "unit": "mg/L"}, {"measurement": "MIC", "setting": "[18]; ATCC 13076, 18 h", "result": 4, "unit": "mg/L"}, {"measurement": "activity in the presence of monovalent cations (Na^+ and K^+)", "setting": "[19]", "result": "not any loss of activity"}]}
